The assay deals with HT-29 cells. Nature of the assay: HT29 Cells 0FBS Assay In Vitro (TNF-α/SMAC mimetic/zVAD-FMK induced necroptosis, CellTiter-Glo cell viability). As to conditions: Homo sapiens; HT-29 cells, FBS free medium, TNF-α (10 ng/ml), SMAC mimetic (6 uM), zVAD-FMK (10 μM), 20 hours; geometric mean EC50; read-out: Cell activity (EC50) of Compounds 117-281. Format: cell-based. A digest of the protocol:
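Viability was measured by ATP luminescence (CellTiter-Glo) after 20 h at 37° C of compound exposure in 10-point, 1:3 dilutions. Necroptosis in FBS-free HT-29 cultures was driven by a TNF-α (10 ng/ml), SMAC mimetic (6 μM) and zVAD-FMK (10 μM) cocktail. EC50 values are geometric means from duplicate curves.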
(ATP-based viability assays read luminescence as a measure of living cells.)
In the case of `Cn1nc(C#N)cc1-c1cc(OC2CN(C(=O)N3N=CC[C@H]3c3cc(F)cc(F)c3)C2)c(F)cn1` [compound 173, (S)-5-(4-((1-(5-(3,5-difluorophenyl)-4,5-dihydro-1H-pyrazole-1-carbonyl)azetidin-3-yl)oxy)-5-fluoropyridin-2-yl)-1-methyl-11H-pyrazole-3-carbonitrile], the EC50 – broadly, the concentration needed to bring the measured effect to its halfway point – lay in the range of 0.1 to 100 nM. For the compound `Cn1nc(CO)cc1-c1cc(OC2CN(C(=O)N3N=CC[C@H]3c3cc(F)cc(F)c3)C2)c(F)cn1` [compound 174, (S)-(5-(3,5-difluorophenyl)-4,5-dihydro-1H-pyrazol-1-yl)(3-((5-fluoro-2-(3-(hydroxymethyl)-1-methyl-1H-pyrazol-5-yl)pyridin-4-yl)oxy)azetidin-1-yl)methanone], the EC50 was 0.1 to 100 nM. Turning to `Cc1c(Cl)nn(C)c1-c1cc(OC2CN(C(=O)N3N=CC[C@H]3c3cc(F)cc(F)c3)C2)c(F)cn1` [compound 175, (S)-(3-((2-(3-chloro-1,4-dimethyl-1H-pyrazol-5-yl)-5-fluoropyridin-4-yl)oxy)azetidin-1-yl)(5-(3,5-difluorophenyl)-4,5-dihydro-1H-pyrazol-1-yl)methanone], the EC50 fell in the range of 0.1 to 100 nM. On to `CSc1nn(C)c(-c2cc(OC3CN(C(=O)N4N=CC[C@H]4c4cc(F)cc(F)c4)C3)c(F)cn2)c1C` [compound 176, (S)-(5-(3,5-difluorophenyl)-4,5-dihydro-1H-pyrazol-1-yl)(3-((2-(1,4-dimethyl-3-(methylthio)-1H-pyrazol-5-yl)-5-fluoropyridin-4-yl)oxy)azetidin-1-yl)methanone], for which the EC50 was 0.1 to 100 nM. `Cc1c(S(C)(=O)=O)nn(C)c1-c1cc(OC2CN(C(=O)N3N=CC[C@H]3c3cc(F)cc(F)c3)C2)c(F)cn1` [compound 177, (5-(3,5-difluorophenyl)-4,5-dihydro-1H-pyrazol-1-yl)(3-((2-(1,4-dimethyl-3-(methylsulfonyl)-1H-pyrazol-5-yl)-5-fluoropyridin-4-yl)oxy)azetidin-1-yl)methanone]: the EC50 was in the range of 0.1 to 100 nM. With `CC(O)c1cnn(C)c1-c1cc(OC2CN(C(=O)N3N=CC[C@H]3c3cc(F)cc(F)c3)C2)c(F)cn1` (stereo partly drawn) [compound 179, ((S)-5-(3,5-difluorophenyl)-4,5-dihydro-1H-pyrazol-1-yl)(3-((5-fluoro-2-(4-(1-hydroxyethyl)-1-methyl-1H-pyrazol-5-yl)pyridin-4-yl)oxy)azetidin-1-yl)methanone] the figure was 100 to 1000 nM; with `Cc1nc(CO)sc1-c1cc(OC2CN(C(=O)N3N=CC[C@H]3c3cc(F)cc(F)c3)C2)c(F)cn1` [compound 180, (S)-(5-(3,5-difluorophenyl)-4,5-dihydro-1H-pyrazol-1-yl)(3-((5-fluoro-2-(2-(hydroxymethyl)-4-methylthiazol-5-yl)pyridin-4-yl)oxy)azetidin-1-yl)methanone], 0.1 to 100 nM.

`Cc1nn(C2CCNCC2)c(C)c1-c1cc(OC2CN(C(=O)N3N=CC[C@H]3c3cc(F)cc(F)c3)C2)c(F)cn1` [compound 181]: the EC50 lay within 0.1 to 100 nM.

As for `Cc1cnc(C)n1-c1cc(OC2CN(C(=O)N3N=CC[C@H]3c3cc(F)cc(F)c3)C2)c(F)cn1` [compound 182, (S)-(5-(3,5-difluorophenyl)-4,5-dihydro-1H-pyrazol-1-yl)(3-((2-(2,5-dimethyl-1H-imidazol-1-yl)-5-fluoropyridin-4-yl)oxy)azetidin-1-yl)methanone], the EC50 lay in the range of 0.1 to 100 nM. The figure for `Cc1nn(-c2cc(OC3CN(C(=O)N4N=CC[C@H]4c4cc(F)cc(F)c4)C3)c(F)cn2)c(C)c1C(=O)N1CCCCC1` [compound 183, (S)-(5-(3,5-difluorophenyl)-4,5-dihydro-1H-pyrazol-1-yl)(3-((2-(3,5-dimethyl-4-(piperidine-1-carbonyl)-1H-pyrazol-1-yl)-5-fluoropyridin-4-yl)oxy)azetidin-1-yl)methanone] is 0.1 to 100 nM; for `Cc1nn(-c2cc(OC3CN(C(=O)N4N=CC[C@H]4c4cc(F)cc(F)c4)C3)c(F)cn2)c(C)c1C(=O)N1CCOCC1` [compound 184, (S)-(5-(3,5-difluorophenyl)-4,5-dihydro-1H-pyrazol-1-yl)(3-((2-(3,5-dimethyl-4-(morpholine-4-carbonyl)-1H-pyrazol-1-yl)-5-fluoropyridin-4-yl)oxy)azetidin-1-yl)methanone] it is 0.1 to 100 nM; for `Cc1cnn(C)c1-c1ccc(F)c(OC2CN(C(=O)N3N=CC[C@H]3c3cc(F)cc(F)c3)C2)n1` [compound 185, (S)-(5-(3,5-difluorophenyl)-4,5-dihydro-1H-pyrazol-1-yl)(3-((6-(1,4-dimethyl-1H-pyrazol-5-yl)-3-fluoropyridin-2-yl)oxy)azetidin-1-yl)methanone] it is 0.1 to 100 nM. With `Cc1c(C#N)nn(C)c1-c1ccc(F)c(OC2CN(C(=O)N3N=CC[C@H]3c3cc(F)cc(F)c3)C2)n1` [compound 186, (S)-5-(6-((1-(5-(3,5-difluorophenyl)-4,5-dihydro-1H-pyrazole-1-carbonyl)azetidin-3-yl)oxy)-5-fluoropyridin-2-yl)-1,4-dimethyl-1H-pyrazole-3-carbonitrile] the figure was 0.1 to 100 nM. `Cc1nn(S(C)(=O)=O)c(C)c1-c1cc(OC2CN(C(=O)N3N=CC[C@H]3c3cc(F)cc(F)c3)C2)c(F)cn1` [compound 187, (S)-(5-(3,5-difluorophenyl)-4,5-dihydro-1H-pyrazol-1-yl)(3-((2-(3,5-dimethyl-1-(methylsulfonyl)-1H-pyrazol-4-yl)-5-fluoropyridin-4-yl)oxy)azetidin-1-yl)methanone]: the EC50 was 0.1 to 100 nM. The figure for `Cc1nc(C#N)sc1-c1cc(OC2CN(C(=O)N3N=CC[C@H]3c3cc(F)cc(F)c3)C2)c(F)cn1` [compound 188, (S)-5-(4-((1-(5-(3,5-difluorophenyl)-4,5-dihydro-1H-pyrazole-1-carbonyl)azetidin-3-yl)oxy)-5-fluoropyridin-2-yl)-4-methylthiazole-2-carbonitrile] is 0.1 to 100 nM; for `Cc1nc(C(N)=O)sc1-c1cc(OC2CN(C(=O)N3N=CC[C@H]3c3cc(F)cc(F)c3)C2)c(F)cn1` [compound 189, (S)-5-(4-((1-(5-(3,5-difluorophenyl)-4,5-dihydro-1H-pyrazole-1-carbonyl)azetidin-3-yl)oxy)-5-fluoropyridin-2-yl)-4-methylthiazole-2-carboxamide] it is 0.1 to 100 nM; for `Cc1nn(-c2cc(OC3CN(C(=O)N4N=CC[C@H]4c4cc(F)cc(F)c4)C3)c(F)cn2)c(C)c1S(C)(=O)=O` [compound 190, (S)-(5-(3,5-difluorophenyl)-4,5-dihydro-1H-pyrazol-1-yl)(3-((2-(3,5-dimethyl-4-(methylsulfonyl)-1H-pyrazol-1-yl)-5-fluoropyridin-4-yl)oxy)azetidin-1-yl)methanone] it is 0.1 to 100 nM.

On to `Cc1[nH]c(C(N)=O)c(C)c1-c1cc(OC2CN(C(=O)N3N=CC[C@H]3c3cc(F)cc(F)c3)C2)c(F)cn1` [compound 191, (S)-4-(4-((1-(5-(3,5-difluorophenyl)-4,5-dihydro-1H-pyrazole-1-carbonyl)azetidin-3-yl)oxy)-5-fluoropyridin-2-yl)-3,5-dimethyl-1H-pyrrole-2-carboxamide], for which the EC50 lay within 0.1 to 100 nM. Turning to `Cc1nn(-c2cc(OC3CN(C(=O)N4N=CC[C@H]4c4cc(F)cc(F)c4)C3)c(F)cn2)c(C)c1C(=O)N(C)C` [compound 192, (S)-1-(4-((1-(5-(3,5-difluorophenyl)-4,5-dihydro-1H-pyrazole-1-carbonyl)azetidin-3-yl)oxy)-5-fluoropyridin-2-yl)-N,N,3,5-tetramethyl-1H-pyrazole-4-carboxamide], the EC50 is 0.1 to 100 nM. Consider `CNC(=O)c1c(C)nn(-c2cc(OC3CN(C(=O)N4N=CC[C@H]4c4cc(F)cc(F)c4)C3)c(F)cn2)c1C` [compound 193, (S)-1-(4-((1-(5-(3,5-difluorophenyl)-4,5-dihydro-1H-pyrazole-1-carbonyl)azetidin-3-yl)oxy)-5-fluoropyridin-2-yl)-N,3,5-trimethyl-1H-pyrazole-4-carboxamide], for which the EC50 fell in the range of 0.1 to 100 nM.

In the case of `Cc1nn(-c2cc(OC3CN(C(=O)N4N=CC[C@H]4c4cc(F)cc(F)c4)C3)c(F)cn2)c(C)c1C(=O)N1CCCC1` [compound 194, (S)-(5-(3,5-difluorophenyl)-4,5-dihydro-1H-pyrazol-1-yl)(3-((2-(3,5-dimethyl-4-(pyrrolidine-1-carbonyl)-1H-pyrazol-1-yl)-5-fluoropyridin-4-yl)oxy)azetidin-1-yl)methanone], the EC50 lay within 0.1 to 100 nM. `Cc1nn(-c2cc(OC3CN(C(=O)N4N=CC[C@H]4c4cc(F)cc(F)c4)C3)c(F)cn2)c(C)c1C(=O)N1CCC1` [compound 195, (S)-azetidin-1-yl(1-(4-((1-(5-(3,5-difluorophenyl)-4,5-dihydro-1H-pyrazole-1-carbonyl)azetidin-3-yl)oxy)-5-fluoropyridin-2-yl)-3,5-dimethyl-1H-pyrazol-4-yl)methanone]: the EC50 was in the range of 0.1 to 100 nM. The figure for `Cc1c(C(N)=O)nn(C)c1-c1ccc(F)c(OC2CN(C(=O)N3N=CC[C@H]3c3cc(F)cc(F)c3)C2)n1` [compound 196, (S)-5-(6-((1-(5-(3,5-difluorophenyl)-4,5-dihydro-1H-pyrazole-1-carbonyl)azetidin-3-yl)oxy)-5-fluoropyridin-2-yl)-1,4-dimethyl-1H-pyrazole-3-carboxamide] is 0.1 to 100 nM; for `Cc1cnn(C)c1-c1ccc(F)c(OC2CN(C(=O)N3N=CC[C@H]3c3cc(F)cc(F)c3)C2)c1` [compound 197, (S)-(5-(3,5-difluorophenyl)-4,5-dihydro-1H-pyrazol-1-yl)(3-(5-(1,4-dimethyl-1H-pyrazol-5-yl)-2-fluorophenoxy)azetidin-1-yl)methanone] it is 0.1 to 100 nM. The figure for `Cc1n[nH]c(C)c1-c1ccc(F)c(OC2CN(C(=O)N3N=CC[C@H]3c3cc(F)cc(F)c3)C2)c1` [compound 198, (S)-(5-(3,5-difluorophenyl)-4,5-dihydro-1H-pyrazol-1-yl)(3-(5-(3,5-dimethyl-1H-pyrazol-4-yl)-2-fluorophenoxy)azetidin-1-yl)methanone] is 0.1 to 100 nM.

Values taken from US12655125B2 (SIRONAX LTD., priority 2020, dated 2026).
